Data reported in patent US20250154686A1, “COMPOUND LIBRARY” (CHUGAI SEIYAKU KABUSHIKI KAISHA, priority 2021, published 2025).

Target: T1, Bcl-2 protein (Recombinant Human Bcl-2 Protein) (Homo sapiens, UniProt P10415)
T1 construct: purchased Novus Biologicals NBP2-34889
Experiment: AS-MS evaluation of binding of the Example 4 mixture library (1200 compounds/well) to Bcl-2, ASMS ratio (%)
Details: mixture library, value belongs to the MS peak assigned to the compound; for ASMS ratio (%) n = 1: replicate n = 1; for ASMS ratio (%) n = 2: replicate n = 2
Description: DMSO solutions (prepared into approximately 0.58 mM based on calculation from the average molecular weight of each mixture) of 12 types of mixtures that could each contain 100 compounds, i.e., mixAI-B4J-01, mixAI-B1M-01, mixAI-B1K-01, mixAI-BIO-01, mixAI-B1A-01, mixAI-B3A-01, mixAI-B21-01, mixAI-B2L-01, mixAI-B2N-01, mixAI-B2A-01, mixAI-B2Q-01, and mixAI-B2R-01, shown in Table AI-03-B4J-01, Table AI-03-B1M-01, Table AI-03-B1K-01, Table AI-03-B10-01, Table AI-03-B1A-01, Table AI-03-B3A-01, Table AI-03-B21-01, Table AI-03-B2L-01, Table AI-03-B2N-01, Table AI-03-B2A-01, Table AI-03-B2Q-01, and Table AI-03-B2R-01 described in Example 4, were respectively dispensed to a total of 12 wells of MICROPLATE, 96-well, PP, V-BOTTOM (Greiner Bio-One International GmbH, 651201). 70 nL each from the 12 wells was collected into any one well using LABCYTE ECHO® 555 acoustic dispensing system (Beckman Coulter, Inc.) to prepare a sample solution in a mixed state of 1200 compounds (the presence of 1152 compounds was already identified when the mixtures were prepared in Example 4). Further, Bcl-2 protein (Novus Biologicals, NBP2-34889, Recombinant Human Bcl-2 Protein, Lot E60145051) (19.2 μL) prepared at 20.9 μM in advance using a Tris-HCl buffer (25 mM Tris-HCl, pH 7.4, 150 mM NaCl, 0.025% Tween-20, and 1 mM DTT) was added to the well containing the dispensed 1200 compounds (the presence of 1152 compounds was already identified when the mixtures were prepared in Example 4) (final compound concentration: 20 nM, final Bcl-2 concentration: 20 μM), and the plate was incubated at 23° C. for 1 hour in the dark. Subsequently, 200 μL of an assay buffer (25 mM Tris-HCl, pH 7.4, 150 mM NaCl, 0.025% Tween-20, and 1 mM DTT) was centrifuged three times at 2000×G at 4° C. for 2 minutes using 96-well MacroSpin column, P-2 Material (Harvard Bioscience, Inc., 74-5655) that had been allowed to swell to condition the 96-well MacroSpin column. Subsequently, 20 μL of the sample thus incubated was added to the 96-well MacroSpin column, P-2 Material after the completion of conditioning, and SEC treatment was performed by centrifugation at 2000×G for 2 minutes. 32 μL of a 1:1 mixed solution of acetonitrile and methanol (LC/MS grade, FUJIFILM Wako Pure Chemical Corp.) was added to a flow-through liquid from SEC, and the mixture was centrifuged at 1800×G at 4° C. for 5 minutes. The supernatant was used as analysis sample ASMS (A). By a similar operation, a sample prepared at 1200 compounds/well and supplemented with only a Tris-HCl buffer containing no Bcl-2 protein was incubated under the same conditions as above, and the same organic solvent as above was added thereto without 96-well MacroSpin column treatment. A supernatant obtained by a centrifugation operation was used as STD (B). Next, by a similar operation, a sample prepared at 1200 compounds/well and supplemented with only a Tris-HCl buffer containing no Bcl-2 protein was incubated under the same conditions as above and treated with 96-well MacroSpin column in the same manner as above, and the same organic solvent as above was added thereto. A supernatant obtained by a centrifugation operation was used as BK (C). These samples were measured by reverse-phase LC/MS.
Then, the samples A, B and C were analyzed for the 1200 compounds using TraceFinder 5.1 (Thermo Fisher Scientific Inc.) and CHANCE Software (in-house), and an ASMS ratio (%) was calculated according to the following expression.
Although m/z of the MS peaks was confirmed down to four decimal places, 0 at the decimal level may be omitted in the description in Table AJ-01. For example, “587.0000” is also referred to as “587”, “587.1000” is also referred to as “587.1”, “587.1200” is also referred to as “587.12”, and “587.1230” is also referred to as “587.123”.

T1 sequence (P10415 whole entry): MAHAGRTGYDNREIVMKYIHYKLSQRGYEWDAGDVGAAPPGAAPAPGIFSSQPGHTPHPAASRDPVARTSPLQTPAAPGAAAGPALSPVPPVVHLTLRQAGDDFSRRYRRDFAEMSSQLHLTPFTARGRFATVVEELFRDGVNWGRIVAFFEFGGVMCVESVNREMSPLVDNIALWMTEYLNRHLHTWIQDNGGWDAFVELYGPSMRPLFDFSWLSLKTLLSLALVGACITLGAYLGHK

SMILES	ASMS ratio (%) n = 1 [%]	ASMS ratio (%) n = 2 [%]
CCOc1cncc(-c2ccccc2CN2CCN(c3ccc(C(=O)NS(C)(=O)=O)cc3)CC2)c1 [Compound B2I046-01, 4-[4-[[2-(5-Ethoxypyridin-3-yl)phenyl]methyl]piperazin-1-yl]-N-methylsulfonylbenzamide]	−0.6	1.5
CCOc1cccc(-c2ccc(CN3CCN(c4ccc(C(=O)NS(C)(=O)=O)cc4)CC3)cc2C)c1 [Compound B2I047-01, 4-[4-[[4-(3-Ethoxyphenyl)-3-methylphenyl]methyl]piperazin-1-yl]-N-methylsulfonylbenzamide]	0.8	1.4
CCOc1cncc(-c2ccc(CN3CCN(c4ccc(C(=O)NS(C)(=O)=O)cc4)CC3)cc2C)c1 [Compound B2I048-01, 4-[4-[[4-(5-Ethoxypyridin-3-yl)-3-methylphenyl]methyl]piperazin-1-yl]-N-methylsulfonylbenzamide]	0.0	0.0
CCOc1cccc(-c2ccc(CN3CCN(c4ccc(C(=O)NS(C)(=O)=O)cc4)CC3)c(CC)c2)c1 [Compound B2I049-01, 4-[4-[[4-(3-Ethoxyphenyl)-2-ethylphenyl]methyl]piperazin-1-yl]-N-methylsulfonylbenzamide]	0.0	0.0
CCOc1cncc(-c2ccc(CN3CCN(c4ccc(C(=O)NS(C)(=O)=O)cc4)CC3)c(CC)c2)c1 [Compound B2I050-01, 4-[4-[[4-(5-Ethoxypyridin-3-yl)-2-ethylphenyl]methyl]piperazin-1-yl]-N-methylsulfonylbenzamide]	0.0	−1.5
CCOc1cccc(-c2ccc(CN3CCN(c4ccc(C(=O)NS(C)(=O)=O)cc4)CC3)cc2F)c1 [Compound B2I051-01, 4-[4-[[4-(3-Ethoxyphenyl)-3-fluorophenyl]methyl]piperazin-1-yl]-N-methylsulfonylbenzamide]	0.0	0.0
CCOc1cncc(-c2ccc(CN3CCN(c4ccc(C(=O)NS(C)(=O)=O)cc4)CC3)cc2F)c1 [Compound B2I052-01, 4-[4-[[4-(5-Ethoxypyridin-3-yl)-3-fluorophenyl]methyl]piperazin-1-yl]-N-methylsulfonylbenzamide]	0.0	0.0
CCOc1cccc(-c2ccc(CN3CCN(c4ccc(C(=O)NS(C)(=O)=O)cc4)CC3)c(OC)c2)c1 [Compound B2I053-01, 4-[4-[[4-(3-Ethoxyphenyl)-2-methoxyphenyl]methyl]piperazin-1-yl]-N-methylsulfonylbenzamide]	0.0	0.0
CCOc1cncc(-c2ccc(CN3CCN(c4ccc(C(=O)NS(C)(=O)=O)cc4)CC3)c(OC)c2)c1 [Compound B2I054-01, 4-[4-[[4-(5-Ethoxypyridin-3-yl)-2-methoxyphenyl]methyl]piperazin-1-yl]-N-methylsulfonylbenzamide]	0.0	0.0
CCOc1cccc(-c2cc(CN3CCN(c4ccc(C(=O)NS(C)(=O)=O)cc4)CC3)cc(OCC)c2)c1 [Compound B2I055-01, 4-[4-[[3-Ethoxy-5-(3-ethoxyphenyl)phenyl]methyl]piperazin-1-yl]-N-methylsulfonylbenzamide]	0.0	0.0
CCOc1cncc(-c2cc(CN3CCN(c4ccc(C(=O)NS(C)(=O)=O)cc4)CC3)cc(OCC)c2)c1 [Compound B2I056-01, 4-[4-[[3-Ethoxy-5-(5-ethoxypyridin-3-yl)phenyl]methyl]piperazin-1-yl]-N-methylsulfonylbenzamide]	0.0	0.0
CCOc1cccc(-c2cc(CN3CCN(c4ccc(C(=O)NS(C)(=O)=O)cc4)CC3)cc(OC(C)C)c2)c1 [Compound B2I057-01, 4-[4-[[3-(3-Ethoxyphenyl)-5-propan-2-yloxyphenyl]methyl]piperazin-1-yl]-N-methylsulfonylbenzamide]	0.0	0.0
CCOc1cncc(-c2cc(CN3CCN(c4ccc(C(=O)NS(C)(=O)=O)cc4)CC3)cc(OC(C)C)c2)c1 [Compound B2I058-01, 4-[4-[[3-(5-Ethoxypyridin-3-yl)-5-propan-2-yloxyphenyl]methyl]piperazin-1-yl]-N-methylsulfonylbenzamide]	0.0	0.0
CCOc1cccc(-c2cc(OC)c(CN3CCN(c4ccc(C(=O)NS(C)(=O)=O)cc4)CC3)c(OC)c2)c1 [Compound B2I059-01, 4-[4-[[4-(3-Ethoxyphenyl)-2,6-dimethoxyphenyl]methyl]piperazin-1-yl]-N-methylsulfonylbenzamide]	0.0	0.0
CCOc1cncc(-c2cc(OC)c(CN3CCN(c4ccc(C(=O)NS(C)(=O)=O)cc4)CC3)c(OC)c2)c1 [Compound B2I060-01, 4-[4-[[4-(5-Ethoxypyridin-3-yl)-2,6-dimethoxyphenyl]methyl]piperazin-1-yl]-N-methylsulfonylbenzamide]	0.0	0.0
CCOc1cccc(-c2cc(CN3CCN(c4ccc(C(=O)NS(C)(=O)=O)cc4)CC3)cc(C(F)(F)F)c2)c1 [Compound B2I061-01, 4-[4-[[3-(3-Ethoxyphenyl)-5-(trifluoromethyl)phenyl]methyl]piperazin-1-yl]-N-methylsulfonylbenzamide]	−0.8	0.5
CCOc1cncc(-c2cc(CN3CCN(c4ccc(C(=O)NS(C)(=O)=O)cc4)CC3)cc(C(F)(F)F)c2)c1 [Compound B2I062-01, 4-[4-[[3-(5-Ethoxypyridin-3-yl)-5-(trifluoromethyl)phenyl]methyl]piperazin-1-yl]-N-methylsulfonylbenzamide]	0.0	0.0
CCOc1cccc(-c2cc(CN3CCN(c4ccc(C(=O)NS(C)(=O)=O)cc4)CC3)cc(OC(F)(F)F)c2)c1 [Compound B2I063-01, 4-[4-[[3-(3-Ethoxyphenyl)-5-(trifluoromethoxy)phenyl]methyl]piperazin-1-yl]-N-methylsulfonylbenzamide]	0.9	0.0
CCOc1cncc(-c2cc(CN3CCN(c4ccc(C(=O)NS(C)(=O)=O)cc4)CC3)cc(OC(F)(F)F)c2)c1 [Compound B2I064-01, 4-[4-[[3-(5-Ethoxypyridin-3-yl)-5-(trifluoromethoxy)phenyl]methyl]piperazin-1-yl]-N-methylsulfonylbenzamide]	0.0	0.0
